# Assays:
# AGE-BSA = target: T1, AGE-BSA (Bos taurus, UniProt P02769); assay: In-vitro screening for AGE-breaking activity (AGE-BSA incubated with compound; ELISA / gel permeation chromatography); format: biochemical, bovine; conditions: 37° C., 24 hours
# T1 construct: Bovine serum albumin (fraction V) (BSA); from tissue; host or cells: bovine serum (fraction V); own knowledge: fraction V is the albumin fraction of plasma/serum
# Method: Fluorescence was used as the criteria to monitor the increased AGE formation.
# 160 mg/ml of protein, bovine serum albumin, BSA and 1.6M glucose sugar were dissolved in phosphate buffered saline, PBS. Sodium azide was added at 0.02% concentration as a preservative. The solution was filtered asceptically through a […] filter and kept for aging at 37° C. for 16 weeks. After 16 weeks the solution was dialyzed against PBS, aliquoted and stored at −20° C.
# To determine the AGE breaking activity, 10 μg/ml of the 16 weeks AGE-BSA was incubated with different concentrations of the test compounds at 37° C. for 24 hours and AGE breaking activity of the test compounds by ELISA was determined.
# • 1. Different concentrations of 16 weeks AGE-BSA were coated on a microtiter plate as standard. Each concentration is coated in triplicates. • 2. The test samples were coated on microtiter plate at a concentration of 5 ng. to 20 ng per well in triplicates. • 3. The plate was incubated at 37° C. for one hour. • 4. After incubation the plate was washed with PBST (PBS with 0.05% Tween 20). • 5. Blocking with 5% skimmed milk in PBS at 37° C. for one hour was done. • 6. The plate was washed with PBST. • 7. Primary antibody against AGE-BSA was added and the plate is incubated at 37° C. for one hour. • 8. The plate was washed with PBST. • 9. Secondary antibody anti rabbit HRPO (Horse-Radish Per Oxidase) conjugate was added and the plate is incubated at 37° C. for one hour. • 10. The plate was washed with PBST. • 11. Colour development with OPD (orthophenylenediamine dihydrochloride) and hydrogen peroxide was done. • 12. OD (optical density) at (450 nm reading –620 nm reading) was measured after incubation at 37° C. for 15 minutes with Microplate ELISA Reader.
# The breaker activity of the compounds were determined by the following formula:
# [formula] OD450-620Control=Absorbance of 20 ng AGE-BSA after incubation at 37° C. for 24 hours without test compound. OD450-620Test=Absorbance of 20 ng AGE-BSA after incubation at 37° C. for 24 hours with required concentration of test compound.
# Gel Permeation Chromatography based method was used to determine AGE breaking activities of the compounds.
# Separation by Gel Permeation Chromatography (GPC) depends on differences in the size, more precisely the hydrodynamic volume, of the proteins in a sample. […] The pores of a column particle are differentially accessible to smaller particles, depending on their size. This volume of the column is called (V1). The total accessible volume (Vt) is the sum of the volume outside the particles (V0) and the volume accessible inside the particles (V1): Vt=V0+Vi Therefore, in a typical Gel Permeation Chromatography (GPC) run, high molecular weight molecules elute at a lower retention time whereas lower molecular weight molecules are retained for longer time. For the purpose of quantification, the area under the curve for the respective molecule is recorded. The same principle has been applied in the in vitro screening of the molecules of instant invention. Highly cross-linked Advanced Glycosylated Endproducts (AGE) were prepared in vitro by incubating Bovine Serum Albumin (BSA) with glucose for a period of 16 weeks. […] The reduction in the area of AGE-BSA incubated in the presence of AGE breaker as compared to that of control AGE BSA (incubated in absence of AGE breaker) gives an estimate of the AGE breaker activity of the drug. In order to check the non-specific activity of the molecule, a similar experiment was repeated with BSA as well. Methodology:
# A known concentration of 16-week AGE-BSA was incubated with and without a predetermined concentration of the drug at 37° C. for 24 hours in clean transparent glass test tubes. The solution without drug served as the control and the solution containing the drug was treated as the test sample.
# Gel permeation chromatography was performed on equal volumes of control AGE-BSA preparation and solution of AGE-BSA treated with drug. […]
# [1] = Free radical scavenging activity on ABTS radical cation; format: biochemical
# Method: This method measures the relative ability of free radical scavenging substances to scavenge the ABTS.^+ i.e. 2,2-Azino-bis-(3-ethyl benzo thiazoline-6-sulfonate) radical cation as compared to a standard amount of standard or free radical scavengers antioxidants. Incubation of ABTS with Peroxidase (metmyoglobin) and hydrogen peroxide results in the production of radical cation ABTS.^+. This species is blue-green in colour and can be detected at 730 nm. Antioxidants or free radical scavengers in the added sample that causes suppression of the color to a degree that is proportional to their concentration.
# Preparation of Buffer Solutions: • a. Phosphate Citrate Buffer (pH 5.0): 48.5 ml of 0.1M citric acid with sufficient 0.2M disodium hydrogen phosphate to produce 100 ml. • b. Phosphate Buffer Saline (PBS): Dissolve 40.0 g of NaCl, 1.0 g of KCl, 1.0 g of KH2PO4 and 3.05 g of Na2HPO4 in 1 liter milli-Q water. Dilute 200 ml of above solution to 1 liter with milli-Q water (pH 7.4–7.6).
# Preparation of ABTS Stock Solution (2 mM): • 1 tablet (10 mg) was dissolved in phosphate citrate buffer (pH 5.0) to give a 2 mM solution.
# Preparation of Horse Radish Peroxidase Working Solution: • 0.1 mg was dissolved in 10 ml of phosphate buffer saline, 1 ml of this solution was diluted to 100 ml with PBS.
# Preparation of Hydrogen Peroxide (1.08 mM) Solution: • 12 μl of Hydrogen Peroxide (30% w/v) was diluted to 100 ml with PBS.
# Preparation of Drug Solutions: • 0.1 mM of stock solution of the drug was prepared which was serially diluted in PBS to get 0.05 mM, 0.025 mM and 0.0125 mM solutions.
# Preparation of ABTS Radical Stock Solution: • To 2 ml of ABTS stock solution, 1 ml of horseradish Peroxidase working solution was added. • As soon as 2 ml of Hydrogen peroxide solution was added to the above solution, blue-green colour of the ABTS radicals appeared. This solution was incubated at 30° C. for 30 min in order to ensure the completion reaction. Make up the volume to 10 ml with PBS.
# Preparation of Control Solution: • 900 μl of ABTS radical stock solution were added to an eppendorf tube. To it were added 100 μl of PBS solution.
# Preparation of Test Solution: • 900 μl of ABTS radical stock solutions were added to different eppendorf tubes. To it were added 100 μl of various concentrations of drug solution.
# Measurement of Absorbance (O.D): • The absorbance of control and test samples was recorded immediately at 730 nm taking PBS as blank.
# Calculation: • The percent antioxidant activity was calculated according to the formula: % Antioxidant activity=100−[O.D of test sample/O.D of control×100]
# T1 sequence (P02769 25-607): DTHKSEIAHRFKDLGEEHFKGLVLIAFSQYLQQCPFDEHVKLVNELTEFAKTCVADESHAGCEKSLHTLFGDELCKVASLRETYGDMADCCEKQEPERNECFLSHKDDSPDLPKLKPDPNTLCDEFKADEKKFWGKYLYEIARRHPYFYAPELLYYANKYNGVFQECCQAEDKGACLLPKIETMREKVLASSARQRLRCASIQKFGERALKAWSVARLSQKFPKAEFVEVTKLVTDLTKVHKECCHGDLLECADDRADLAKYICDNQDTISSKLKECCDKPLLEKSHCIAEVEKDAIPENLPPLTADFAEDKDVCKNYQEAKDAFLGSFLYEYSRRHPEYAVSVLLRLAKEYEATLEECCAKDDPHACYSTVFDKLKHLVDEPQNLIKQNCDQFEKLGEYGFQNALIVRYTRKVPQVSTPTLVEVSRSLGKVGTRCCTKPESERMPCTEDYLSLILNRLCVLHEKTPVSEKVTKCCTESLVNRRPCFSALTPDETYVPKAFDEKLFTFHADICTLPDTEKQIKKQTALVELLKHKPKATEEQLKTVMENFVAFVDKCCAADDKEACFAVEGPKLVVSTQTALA
Compound,% Breakage (AGE-BSA; 10 mM compound) [%],Relative Free Radical Scavenging Activity (%) on ABTS ([1]; 12.5 μM) [%],Relative Free Radical Scavenging Activity (%) on ABTS ([1]; 25.0 μM) [%],Relative Free Radical Scavenging Activity (%) on ABTS ([1]; 50.0 μM) [%],Relative Free Radical Scavenging Activity (%) on ABTS ([1]; 100.0 μM) [%],also measured
1-(2-Cyclopropylamino-2-oxoethyl)-3-[(3-(2-cyclohexylethyl)pyrazol-5-yl]pyridinium chloride [Compound 21],93.43,,,,,
"Cl.c1ccc(OCc2cc(-c3cccnc3)[nH]n2)cc1 [Compound 40, 3-[(3-Phenoxymethyl)pyrazol-5-yl]pyridine hydrochloride]",66.06,,,,,
"Cc1cc(C)n(Cc2cc(-c3ccc[n+](CC(=O)c4cc([N+](=O)[O-])cs4)c3)[nH]n2)n1.[Br-] [Compound 8, 1-{2-(4-Nitro-2-thienyl)-2-oxoethyl}-3-[3{(3,5-dimethylpyrazol-1-yl)methyl}-pyrazol-5-yl]-pyridinium bromide]",,22.22,38.18,67.14,99.71,% Breakage (AGE-BSA; 5 mM compound): 85.31%
1-(2-Cyclopropylamino-2-oxoethyl)-3-[(1-cyclohexyl-3-phenylmethyl)pyrazol-5-yl]pyridinium chloride [Compound 23],53.29,,,,,
"O=C(C[n+]1cccc(-c2cc(CCC3CCCCC3)nn2-c2ccccc2)c1)c1cccs1.[Br-] [Compound 37, 1-(2-Thien-2′-yl-2-oxoethyl)-3-[1-phenyl-3-(2-cyclohexylethyl)pyrazol-5-yl]pyridinium bromide]",85.45,21.79,37.92,41.95,39.46,
Cc1ccc(C(=O)C[n+]2cccc(-c3cc(CCC4CCCCC4)n[nH]3)c2)s1.[Cl-] [Compound 20],,6.15,9.06,34.31,57.75,
1-(2-Thien-2′-yl-2-oxoethyl)-3-[(1-cyclohexyl-3-phenoxymethyl)pyrazol-5-yl]pyridinium chloride [Compound 38],,27.70,44.78,61.98,66.92,
"O=C(C[n+]1cccc(-c2cc(Cc3ccccc3)nn2-c2ccccc2)c1)NC1CC1.[Cl-] [Compound 15, 1-(2-Cyclopropylamino-2-oxoethyl) 3-[(1-phenyl-3-phenylmethyl)pyrazol-5-yl]-pyridinium chloride]",80.03,,,,,
"O=C(C[n+]1cccc(-c2cc(Cc3ccccc3)n[nH]2)c1)c1ccccc1.[Br-] [Compound 14, 1-(2-Phenyl-2-oxoethyl)-3-[(3-phenylmethyl)pyrazol-5-yl]-pyridinium bromide]",58.14,,,,,
"O=C(C[n+]1cccc(-c2cc(Cc3ccccc3)n[nH]2)c1)NC12CC3CC(CC(C3)C1)C2.[Cl-] [Compound 25, 1-{2-(1-Adamantylamino-2-oxoethyl)}-3-[(3-phenylmethyl)pyrazol-5-yl]pyridinium chloride]",,,,,,% Breakage (AGE-BSA; 5 mM compound): 98.59%
"O=C(C[n+]1cccc(-c2cc(COc3ccccc3)n[nH]2)c1)NC1CC1.[Cl-] [Compound 31, 1-(2-Cyclopropylamino-2-oxoethyl)-3-[(3-phenoxymethyl)pyrazol-5-yl]pyridinium chloride]",45.72,,,,,
"O=C(C[n+]1cccc(-c2cc(COc3ccccc3)n[nH]2)c1)N1CCC(Cc2ccccc2)CC1.[Br-] [Compound 16, 1-(2-(4-Benzyl-1-piperidinyl)-2-oxoethyl) 3-[(3-phenoxymethyl)pyrazol-5-yl]-pyridinium bromide]",95.51,,,,,
"Cc1cc(C)n(Cc2cc(-c3ccc[n+](CC(=O)NC4CC4)c3)[nH]n2)n1.[Br-] [Compound 7, 1-[2-(Cyclopropylamino)-2-oxoethyl]3-[3-{(3,5-dimethylpyrazol-1-yl)methyl}-pyrazol-5-yl]-pyridinium bromide]",,,,,,% Breakage (AGE-BSA; 1.0 mM compound): 51.72%
